We go through two compounds from ChEMBL document CHEMBL1201862, “PubChem BioAssay data set” (2004).

The source made the active and inactive calls. Bounds are passed on as bounds.

Assay [1] has as its target T1, Sentrin-specific protease 6 (Homo sapiens, UniProt Q9GZR1).
T1 sequence (Q9GZR1 whole entry): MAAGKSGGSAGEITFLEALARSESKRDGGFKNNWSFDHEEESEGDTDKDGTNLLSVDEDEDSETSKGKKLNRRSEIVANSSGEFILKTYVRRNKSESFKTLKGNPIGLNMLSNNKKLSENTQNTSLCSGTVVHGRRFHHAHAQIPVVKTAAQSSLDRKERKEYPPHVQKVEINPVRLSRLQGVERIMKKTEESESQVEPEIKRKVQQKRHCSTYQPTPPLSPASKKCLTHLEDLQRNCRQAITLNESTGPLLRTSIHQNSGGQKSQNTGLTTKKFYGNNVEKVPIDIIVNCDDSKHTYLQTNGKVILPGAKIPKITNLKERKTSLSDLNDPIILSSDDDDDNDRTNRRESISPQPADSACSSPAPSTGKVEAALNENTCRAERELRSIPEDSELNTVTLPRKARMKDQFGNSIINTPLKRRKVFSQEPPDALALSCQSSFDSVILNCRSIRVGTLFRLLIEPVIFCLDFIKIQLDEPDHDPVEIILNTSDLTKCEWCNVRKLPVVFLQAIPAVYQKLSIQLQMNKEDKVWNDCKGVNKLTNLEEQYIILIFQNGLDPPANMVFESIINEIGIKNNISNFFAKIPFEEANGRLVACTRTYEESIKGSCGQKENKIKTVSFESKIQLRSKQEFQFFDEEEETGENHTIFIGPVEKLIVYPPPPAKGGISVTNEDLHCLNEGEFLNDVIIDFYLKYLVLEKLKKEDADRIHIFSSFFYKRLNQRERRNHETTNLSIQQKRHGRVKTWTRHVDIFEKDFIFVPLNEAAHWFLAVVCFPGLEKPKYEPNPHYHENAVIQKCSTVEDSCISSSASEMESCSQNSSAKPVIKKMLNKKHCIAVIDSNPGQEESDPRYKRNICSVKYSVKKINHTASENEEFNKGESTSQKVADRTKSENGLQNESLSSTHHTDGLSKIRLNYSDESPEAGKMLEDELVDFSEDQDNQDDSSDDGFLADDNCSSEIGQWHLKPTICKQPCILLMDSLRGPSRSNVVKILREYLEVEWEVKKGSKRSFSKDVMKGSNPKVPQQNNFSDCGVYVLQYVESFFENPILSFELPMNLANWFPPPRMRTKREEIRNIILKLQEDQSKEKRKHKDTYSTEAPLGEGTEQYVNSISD
In words: SAR Analysis of small molecule inhibitors of Sentrin-specific protease 6 (SENP6) using a Luminescent assay. [Related pubchem assays (depositor defined):AID2582, AID2599]. It is filed as functional.

For assay [2], the target named is T2, Sentrin-specific protease 8 (Homo sapiens, UniProt Q96LD8).
T2 sequence (Q96LD8 whole entry): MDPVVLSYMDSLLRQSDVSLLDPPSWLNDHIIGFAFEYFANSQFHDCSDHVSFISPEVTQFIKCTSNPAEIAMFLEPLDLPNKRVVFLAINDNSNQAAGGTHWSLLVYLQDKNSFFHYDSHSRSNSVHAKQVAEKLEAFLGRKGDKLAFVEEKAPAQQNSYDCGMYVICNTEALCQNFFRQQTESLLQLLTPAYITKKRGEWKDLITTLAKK
Put plainly: inhibition of human SENP8 cleavage activity – biochemical, luminescence, SAR follow-up (AID 504501). The assay is classed as functional.

For a further assay, the target named is T3, Caspase-3 (Homo sapiens, UniProt P42574).
T3 sequence (P42574 whole entry): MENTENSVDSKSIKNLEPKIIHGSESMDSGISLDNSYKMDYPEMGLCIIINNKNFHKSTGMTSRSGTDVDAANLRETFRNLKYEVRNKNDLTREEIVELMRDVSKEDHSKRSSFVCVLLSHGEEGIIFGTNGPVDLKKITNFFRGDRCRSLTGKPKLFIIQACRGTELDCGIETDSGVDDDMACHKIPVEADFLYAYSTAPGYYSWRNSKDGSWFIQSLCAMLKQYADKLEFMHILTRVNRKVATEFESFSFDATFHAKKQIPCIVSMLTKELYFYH
Put plainly: SAR Analysis of small molecule inhibitors of Sentrin-specific proteases (SENPs) using a Caspase-3 Selectivity assay. [Related pubchem assays (depositor defined):AID2540, AID2599, AID434973, AID489001]. The assay is classed as functional.

The target of assay [3] is T4, Sentrin-specific protease 7 (Homo sapiens, UniProt Q9BQF6).
T4 sequence (Q9BQF6 whole entry): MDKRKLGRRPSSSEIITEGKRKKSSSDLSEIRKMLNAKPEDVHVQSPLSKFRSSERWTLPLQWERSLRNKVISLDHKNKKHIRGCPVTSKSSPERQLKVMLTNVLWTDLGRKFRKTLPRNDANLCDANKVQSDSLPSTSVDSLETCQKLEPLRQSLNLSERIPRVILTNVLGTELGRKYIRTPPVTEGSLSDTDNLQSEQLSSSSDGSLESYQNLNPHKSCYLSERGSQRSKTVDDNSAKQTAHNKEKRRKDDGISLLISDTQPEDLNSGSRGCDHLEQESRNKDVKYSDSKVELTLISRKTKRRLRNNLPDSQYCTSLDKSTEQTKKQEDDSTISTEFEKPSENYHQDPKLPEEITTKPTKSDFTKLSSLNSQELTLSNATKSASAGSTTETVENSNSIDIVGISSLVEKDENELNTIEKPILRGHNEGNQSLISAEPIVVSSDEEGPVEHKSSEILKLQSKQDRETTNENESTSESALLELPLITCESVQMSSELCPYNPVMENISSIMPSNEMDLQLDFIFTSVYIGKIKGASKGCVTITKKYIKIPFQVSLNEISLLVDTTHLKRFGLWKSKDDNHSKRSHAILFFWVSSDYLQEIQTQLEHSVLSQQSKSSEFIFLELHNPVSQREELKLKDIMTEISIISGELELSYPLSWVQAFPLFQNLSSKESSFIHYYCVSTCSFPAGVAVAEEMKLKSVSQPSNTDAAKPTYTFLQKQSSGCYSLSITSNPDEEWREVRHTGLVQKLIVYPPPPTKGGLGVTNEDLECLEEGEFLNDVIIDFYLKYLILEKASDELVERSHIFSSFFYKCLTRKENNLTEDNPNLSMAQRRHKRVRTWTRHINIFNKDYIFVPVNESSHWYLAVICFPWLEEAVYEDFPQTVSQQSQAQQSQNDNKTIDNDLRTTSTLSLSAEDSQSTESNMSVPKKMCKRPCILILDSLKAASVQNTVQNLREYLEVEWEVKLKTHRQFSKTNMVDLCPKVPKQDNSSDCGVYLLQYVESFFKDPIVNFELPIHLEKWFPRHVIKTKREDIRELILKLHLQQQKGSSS
In words: inhibition of human SENP7 cleavage activity – biochemical, luminescence, SAR follow-up (AID 504497). The assay is classed as functional.

The test system of assay [4] is HEK293. In words: membrane integrity loss in HEK cells – cell-based, fluorescence, cytotoxicity control for IDE activator project, dose response (AID 588440).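 Further: cytotoxicity by LDH release measuring loss of membrane integrity.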 It is filed as functional. Particulars: Homo sapiens.
Assay [5] concerns the target 5-hydroxytryptamine receptor 2A (Mus musculus, UniProt P35363). The assay is classed as functional, cell-based.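 Further: CHO-K1 cells with tagged receptor and beta-arrestin; agonist potency measured as compound-induced activation of the receptor.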
For assay [6], the target named is NAD-dependent protein deacylase sirtuin-5, mitochondrial (Homo sapiens, UniProt Q9NXA8). Put plainly: sirtuin-5 deacylation blockers, concentration series – biochemical, fluorescence imaging, cherry-pick, set 5, dose response (AID 720591).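 Further: desuccinylation of succinyl peptide AMC substrate read as fluorescence after trypsin release; potency of inhibitors that lower fluorescence and may act on trypsin instead.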
NAD-dependent protein deacylase sirtuin-5, mitochondrial, sequence (Q9NXA8 whole entry): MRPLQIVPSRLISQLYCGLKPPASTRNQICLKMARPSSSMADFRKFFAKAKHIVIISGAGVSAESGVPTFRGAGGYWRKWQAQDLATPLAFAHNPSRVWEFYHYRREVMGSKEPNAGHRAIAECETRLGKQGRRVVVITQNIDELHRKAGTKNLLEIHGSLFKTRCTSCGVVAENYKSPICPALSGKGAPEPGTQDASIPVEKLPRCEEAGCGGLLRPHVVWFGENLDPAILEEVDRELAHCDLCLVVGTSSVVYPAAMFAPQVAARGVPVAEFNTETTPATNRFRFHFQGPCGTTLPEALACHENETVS
In assay [7] the target is T5, Insulin-degrading enzyme (Homo sapiens, UniProt P14735).
T5 sequence (P14735 whole entry): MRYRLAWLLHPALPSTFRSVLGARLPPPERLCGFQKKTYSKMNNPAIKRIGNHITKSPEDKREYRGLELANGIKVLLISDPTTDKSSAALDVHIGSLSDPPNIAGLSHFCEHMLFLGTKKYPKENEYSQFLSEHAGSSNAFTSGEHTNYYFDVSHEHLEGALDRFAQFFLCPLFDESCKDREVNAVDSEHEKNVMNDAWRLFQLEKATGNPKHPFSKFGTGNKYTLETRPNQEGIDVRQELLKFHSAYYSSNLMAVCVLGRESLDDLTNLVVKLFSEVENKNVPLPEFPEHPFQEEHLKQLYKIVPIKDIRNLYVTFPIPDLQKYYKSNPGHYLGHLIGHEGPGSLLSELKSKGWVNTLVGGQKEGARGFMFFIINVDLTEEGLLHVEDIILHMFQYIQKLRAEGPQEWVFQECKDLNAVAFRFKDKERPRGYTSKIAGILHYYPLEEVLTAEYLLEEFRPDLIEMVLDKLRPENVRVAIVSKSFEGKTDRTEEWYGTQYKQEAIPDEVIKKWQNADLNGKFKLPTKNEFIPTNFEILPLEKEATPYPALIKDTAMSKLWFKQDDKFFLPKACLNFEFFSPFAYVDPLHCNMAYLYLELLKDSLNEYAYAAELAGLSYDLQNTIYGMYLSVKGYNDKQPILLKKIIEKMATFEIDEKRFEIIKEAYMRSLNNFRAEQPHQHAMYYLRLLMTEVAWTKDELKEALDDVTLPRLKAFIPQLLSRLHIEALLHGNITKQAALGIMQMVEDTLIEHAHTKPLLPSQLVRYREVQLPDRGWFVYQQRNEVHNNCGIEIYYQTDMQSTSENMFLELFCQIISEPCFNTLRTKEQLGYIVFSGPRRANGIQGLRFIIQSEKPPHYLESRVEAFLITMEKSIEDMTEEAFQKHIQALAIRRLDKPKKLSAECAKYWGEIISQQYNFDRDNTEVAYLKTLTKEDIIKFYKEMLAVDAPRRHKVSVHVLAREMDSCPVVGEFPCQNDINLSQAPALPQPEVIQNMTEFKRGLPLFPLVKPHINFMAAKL
In words: recombinant IDE activation, cell-free – biochemical, fluorescence polarization, counter-screen for IDE activator project, dose response (AID 588681). (In general: Polarisation of emitted light reports the rotation of a fluorescent probe.)

The target in the next assay is T6, Cytochrome P450 1A2 (Homo sapiens, UniProt P05177).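 Further: PubChem cytochrome P450 panel assay, CYP1A2 panel member.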
T6 sequence (P05177 whole entry): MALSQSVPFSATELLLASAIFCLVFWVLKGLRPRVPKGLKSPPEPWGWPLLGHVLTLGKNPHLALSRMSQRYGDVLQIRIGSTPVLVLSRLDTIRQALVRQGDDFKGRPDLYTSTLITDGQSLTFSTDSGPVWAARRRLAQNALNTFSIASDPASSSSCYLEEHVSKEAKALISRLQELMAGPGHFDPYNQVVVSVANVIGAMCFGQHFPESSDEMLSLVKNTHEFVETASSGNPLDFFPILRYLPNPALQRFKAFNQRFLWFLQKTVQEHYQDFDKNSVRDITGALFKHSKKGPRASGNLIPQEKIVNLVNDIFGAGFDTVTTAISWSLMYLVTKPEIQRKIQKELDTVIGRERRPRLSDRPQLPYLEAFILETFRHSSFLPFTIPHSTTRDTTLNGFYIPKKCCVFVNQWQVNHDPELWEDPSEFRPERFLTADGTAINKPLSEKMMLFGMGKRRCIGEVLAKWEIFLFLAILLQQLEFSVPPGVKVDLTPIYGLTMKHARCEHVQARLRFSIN

Assay [8] in a line: Luminescence Cell-Based Dose Retest to Confirm Inhibitors of Cancer Stem Cells. [Related pubchem assays (depositor defined):AID2717, AID2721]. The assay is classed as functional. The following applies: Homo sapiens.
A further assay deals with Mu-type opioid receptor (Homo sapiens, UniProt P35372). The assay is classed as functional, cell-based.
Mu-type opioid receptor, sequence (P35372 whole entry): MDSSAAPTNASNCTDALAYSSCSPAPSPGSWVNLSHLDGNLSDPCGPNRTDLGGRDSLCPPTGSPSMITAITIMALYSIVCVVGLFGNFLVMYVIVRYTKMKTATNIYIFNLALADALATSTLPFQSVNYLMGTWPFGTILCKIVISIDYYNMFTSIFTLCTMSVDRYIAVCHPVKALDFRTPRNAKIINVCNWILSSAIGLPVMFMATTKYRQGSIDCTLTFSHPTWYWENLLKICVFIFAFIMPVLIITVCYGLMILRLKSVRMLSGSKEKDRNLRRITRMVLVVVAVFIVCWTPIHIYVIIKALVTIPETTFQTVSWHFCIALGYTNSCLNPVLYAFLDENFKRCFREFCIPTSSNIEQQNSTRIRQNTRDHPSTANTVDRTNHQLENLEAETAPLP
Assay [9] deals with Voltage-gated inwardly rectifying potassium channel KCNH2 (Homo sapiens, UniProt Q12809). Particulars: Potency.
Voltage-gated inwardly rectifying potassium channel KCNH2, sequence (Q12809 whole entry): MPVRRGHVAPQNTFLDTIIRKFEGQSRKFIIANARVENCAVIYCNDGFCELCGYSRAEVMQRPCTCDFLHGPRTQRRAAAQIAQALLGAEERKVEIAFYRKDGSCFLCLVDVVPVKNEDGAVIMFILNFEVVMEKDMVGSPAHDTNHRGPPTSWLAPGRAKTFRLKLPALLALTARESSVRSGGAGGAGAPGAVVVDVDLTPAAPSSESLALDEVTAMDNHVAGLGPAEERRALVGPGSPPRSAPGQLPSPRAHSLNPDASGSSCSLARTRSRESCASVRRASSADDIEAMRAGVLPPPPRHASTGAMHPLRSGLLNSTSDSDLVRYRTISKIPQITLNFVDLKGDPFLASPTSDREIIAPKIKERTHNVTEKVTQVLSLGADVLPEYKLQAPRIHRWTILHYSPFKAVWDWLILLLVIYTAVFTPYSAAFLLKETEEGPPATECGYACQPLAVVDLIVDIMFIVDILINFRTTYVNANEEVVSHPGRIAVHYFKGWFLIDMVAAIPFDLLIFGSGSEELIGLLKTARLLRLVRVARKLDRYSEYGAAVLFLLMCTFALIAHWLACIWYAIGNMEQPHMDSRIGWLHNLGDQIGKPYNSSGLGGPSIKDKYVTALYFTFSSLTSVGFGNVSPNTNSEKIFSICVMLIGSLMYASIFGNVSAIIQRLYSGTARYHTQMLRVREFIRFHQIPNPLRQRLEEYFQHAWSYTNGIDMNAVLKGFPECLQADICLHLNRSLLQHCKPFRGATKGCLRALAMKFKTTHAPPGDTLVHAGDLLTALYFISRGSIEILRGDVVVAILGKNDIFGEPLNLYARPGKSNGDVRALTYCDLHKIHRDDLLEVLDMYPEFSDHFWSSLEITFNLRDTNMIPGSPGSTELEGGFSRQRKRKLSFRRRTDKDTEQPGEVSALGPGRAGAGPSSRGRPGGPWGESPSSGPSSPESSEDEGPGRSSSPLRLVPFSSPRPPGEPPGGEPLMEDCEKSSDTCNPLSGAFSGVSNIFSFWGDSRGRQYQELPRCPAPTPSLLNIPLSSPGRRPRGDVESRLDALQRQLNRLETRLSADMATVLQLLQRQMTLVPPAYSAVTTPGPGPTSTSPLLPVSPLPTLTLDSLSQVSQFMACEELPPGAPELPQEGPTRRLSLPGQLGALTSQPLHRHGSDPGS
In assay [10] the target is T5, Insulin-degrading enzyme. Put plainly: cellular IDE activation of Abeta substrate cleavage – fluorescence polarization, HEK cells, dose response (AID 588439). The assay is classed as functional, cell-based.
Assay [11] has as its system HEK293. In words: optical interference in Abeta FP readout, dose response, artefact control for IDE activator project, biochemical, fluorescence polarization (AID 588442). The assay is classed as functional, cell-based. The following applies: Homo sapiens.

5-hydroxytryptamine receptor 2A, sequence (P35363 whole entry): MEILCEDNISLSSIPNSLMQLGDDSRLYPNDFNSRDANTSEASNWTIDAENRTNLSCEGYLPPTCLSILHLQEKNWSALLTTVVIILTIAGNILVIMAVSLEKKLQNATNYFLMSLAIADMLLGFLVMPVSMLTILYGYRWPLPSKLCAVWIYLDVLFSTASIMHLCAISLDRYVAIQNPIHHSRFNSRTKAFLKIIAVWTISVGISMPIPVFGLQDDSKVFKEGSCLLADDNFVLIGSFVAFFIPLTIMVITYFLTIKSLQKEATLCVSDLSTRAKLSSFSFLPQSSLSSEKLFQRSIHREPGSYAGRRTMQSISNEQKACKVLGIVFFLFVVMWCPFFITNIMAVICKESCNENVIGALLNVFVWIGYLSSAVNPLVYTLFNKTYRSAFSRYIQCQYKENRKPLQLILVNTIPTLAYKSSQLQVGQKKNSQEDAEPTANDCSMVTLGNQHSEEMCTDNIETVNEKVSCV

The term IC50 denotes the concentration needed to halve the response being measured. In the case of `O=C(NCCc1ccccc1)C(=O)c1c[nH]c2ccccc12`, the IC50 (in assay [1]; in [2]; at Caspase-3; in [3]) was > 99 µM (inactive) in each case.
As a reminder, the EC50 is the concentration giving half of the maximal effect. One may read the AC50 as the midpoint of the concentration-response curve, whichever way the signal moves. For `CCCCCCCC/C=C\CCCCCCCC(=O)NCCc1ccc(O)c(O)c1` [OLEOYL DOPAMINE], in the assay on HEK293 [4], the IC50 is 30.5 µM (inactive). Besides, the EC50 was 0.957 µM (active) in [5]; > 54.7 µM (inactive) on Insulin-degrading enzyme [7]; 92.3 µM (inactive) on Mu-type opioid receptor; 8.94 µM (active) on Insulin-degrading enzyme [10]; > 54.7 µM (inactive) in the assay with HEK293 [11]. Further, the AC50 is 18.1 µM (active) in assay [6], 20 µM (inconclusive) on Cytochrome P450 1A2, 2.59 µM (active) in assay [8] and 35.5 µM (inconclusive) in assay [9].
